Patent US20250099494A1, “PHOSPHONIC ACID COMPOUND AND PRODRUG THEREOF, AND PREPARATION METHODS FOR AND USES OF PHOSPHONIC ACID COMPOUND AND PRODRUG THEREOF” (HAIHE BIOPHARMA CO., LTD., priority 2022, published 2025)

Experiments:
hENPP1-ECD-His = hENPP1-ECD-His (Homo sapiens (Human), UniProt P22413); assay: ENPP1 inhibitory activity, substrate 2',3'-cGAMP detection (AMP-Glo); conditions: read-out: c-GAMP (IC50, nM), inhibitory effect on ENPP1
Method: The ENPP1 inhibitory activity of the compound of the present disclosure was tested in substrate 2′,3′-cGAMP detection.
Experimental objective: based on the established experimental method, the inhibitory IC50 value of the compound in the present application on ENPP1 was detected using 2′,3′-cGAMP as the substrate.
2. Preparation of compound concentration gradient: the tested compound was dissolved in DMSO (dimethyl sulfoxide) to an initial concentration of 10 μM, diluted at 3 times, with 10 concentrations, single well or multi-well testing was set. […] The compound was diluted by gradient in a 384 well plate to a solution with the final concentration of 1000 times, and then 5 nL of the solution was transferred to a 384 well reaction plate for testing using Echo550.5 nL of 100% DMSO was transferred from the smallest well and the largest well.
6. The reaction solution was centrifuged at 1000 rpm for 1 minute and incubated at room temperature for 15 minutes.
7. 2.5 μL 2× substrate solution was added to each well of the reaction plate, centrifuged at 1000 rpm for 1 minute, and incubated at room temperature for 60 minutes.
8. 5 μL of R1 solution (from AMP-Glo™ Kit) was added to each well of the reaction plate, centrifuged at 1000 rpm for 1 minute and incubated at room temperature for 120 minutes.
9. 10 μL of R2 solution (from AMP-Glo™ Kit) was added to each well of the reaction plate, centrifuged at 1000 rpm for 1 minute and incubated at room temperature for 30 minutes.
The inhibition rate is calculated using the following formula: • inhibition rate %=(maximum signal−compound signal)/(maximum signal−minimum signal)×100 • wherein the “minimum signal” represents the mean value of the negative control well, and the “maximum signal” represents the mean value of the positive control well.
Using the log value of concentration as the X-axis and the percentage inhibition rate as the Y-axis, the dose-response curve was fitted using the log(inhibitor) vs. response-variable slope of analysis software GraphPadPrism5 to obtain the inhibitory IC50 value of the compound of the present disclosure on enzyme activity.

[1] = Pharmacokinetic test experiment of mice; format: in vivo, ICR mice; conditions: after oral administration
Method: 1. In each administration mode, 9 healthy ICR mice male, weighing 30-35 g, were randomly divided into 3 groups (M1, M2, M3) with 3 mice in each group. […] Feeding uniformly 4 hours after administration.

[2] = mice, reported by the literature; cited from earlier work
[3] = Pharmacokinetic test experiment for rats; format: in vivo, SD rats; conditions: p.o. prodrug compound 7 (5 mg/kg) vs i.v. compound 1 (1 mg/kg)
Method: 1. Six SD rats of 6-8 weeks old, male, were taken in each administration mode, and the tested compound was administered by gavage (5 mg/kg) and intravenous injection (1 mg/kg), respectively: fasting for 12 hours before the experiment and drinking water freely. Feeding uniformly 4 hours after administration.
(§1) Plasma collection and processing: at the above set time points, 150-200 μL of blood was collected via the plexus jugularis or a suitable part, placed in EDTA-K2 test tube, centrifuged at 3500 rpm for 10 min, plasma was separated, and frozen at −20° C. in a refrigerator.
LC/MS/MS method was used to determine the concentration of compounds in rats plasma. The pharmacokinetic parameters after administration were calculated using a non-compartmental model using Phoenix 8.3 software (Pharsight, USA).

[4] = Pharmacokinetic test experiment for dogs; conditions: beagle dogs, p.o. prodrug compound 7 (2 mg/kg) vs i.v. compound 1 (1 mg/kg)
Method: Feeding uniformly 4 hours after administration.
as §1, with “Blood was collected continuously, with 3 animals collected at each time point. Plasma” for “Plasma”, “1,000” for “150-200”
LC/MS/MS method was used to determine the concentration of compounds in the beagle dogs plasma. The pharmacokinetic parameters after administration were calculated using a non-compartmental model using Phoenix 8.3 software (Pharsight, USA).

hENPP1-ECD-His, sequence (P22413 98-925): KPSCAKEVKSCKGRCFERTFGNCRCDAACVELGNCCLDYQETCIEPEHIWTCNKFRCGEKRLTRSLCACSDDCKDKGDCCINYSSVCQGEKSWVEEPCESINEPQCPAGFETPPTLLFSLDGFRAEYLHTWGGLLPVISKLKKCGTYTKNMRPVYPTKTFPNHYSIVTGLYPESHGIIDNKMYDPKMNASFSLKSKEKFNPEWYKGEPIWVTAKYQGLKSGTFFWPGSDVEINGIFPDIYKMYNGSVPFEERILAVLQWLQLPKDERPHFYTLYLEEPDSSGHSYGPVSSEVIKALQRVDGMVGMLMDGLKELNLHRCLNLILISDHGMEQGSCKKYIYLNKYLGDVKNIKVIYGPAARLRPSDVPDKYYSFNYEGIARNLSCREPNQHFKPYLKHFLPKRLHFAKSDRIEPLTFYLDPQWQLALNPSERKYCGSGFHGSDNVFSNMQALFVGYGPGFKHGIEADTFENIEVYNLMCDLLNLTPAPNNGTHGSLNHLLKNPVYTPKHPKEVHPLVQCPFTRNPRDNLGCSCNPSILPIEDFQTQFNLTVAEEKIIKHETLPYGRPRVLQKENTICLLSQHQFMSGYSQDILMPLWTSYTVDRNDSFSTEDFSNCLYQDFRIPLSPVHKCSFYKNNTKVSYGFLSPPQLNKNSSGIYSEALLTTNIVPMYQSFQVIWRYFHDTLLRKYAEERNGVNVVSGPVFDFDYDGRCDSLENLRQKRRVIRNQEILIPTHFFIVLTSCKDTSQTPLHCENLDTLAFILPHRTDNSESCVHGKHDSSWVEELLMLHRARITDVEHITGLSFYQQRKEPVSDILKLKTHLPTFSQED

Compound | IC50 (hENPP1-ECD-His) [nM] | further results
COc1cc2ncnc(Nc3ccc(CP(=O)(O)O)cc3)c2cc1OC [STF22, reference compound] | 63 | 
COc1ccc2c(Nc3ccc(CP(=O)(O)O)cn3)ccnc2n1 [Compound 21] | 5 | 
COc1ccc2c(Oc3cc(F)c(CP(=O)(O)O)cc3F)ccnc2n1 [Compound 6] | 11 | 
COc1ccc2c(Oc3ccc(CCP(=O)(O)O)cc3)ccnc2n1 [Compound 23] | 37 | 
COc1ccc2c(Oc3ccc(CP(=O)(OCOC(=O)OC(C)C)OCOC(=O)OC(C)C)cc3)ccnc2n1 [Compound 8] |  | time of conversion of prodrug to parent drug compound 1 in mice plasma [1]: ≤ 5 min
COc1ccc2c(Nc3ccc(CP(=O)(O)O)nc3)ccnc2n1 [Compound 20] | 2.1 | 
COc1cccc2c(N3CCC(CCP(=O)(O)O)CC3)ncnc12 [STF32, reference compound] | 6.2 | half-life of injection administration T1/2 [2]: 14 min
COc1ccc2c(Oc3ccc(CP(=O)(OCOC(=O)C(C)(C)C)OCOC(=O)C(C)(C)C)cc3)ccnc2n1 [Compound 7] |  | time of conversion of prodrug to parent drug compound 1 in mice plasma [1]: ≤ 5 min; Bioavailability Oral BA (% F) [3]: 40 % F; Bioavailability Oral BA (% F) [4]: 21 % F
COc1ccc2c(Nc3ccc(CP(=O)(O)O)cc3)ncnc2n1 [Compound 13] | 0.94 | 
COc1ccc2c(Oc3c(F)cc(CP(=O)(O)O)cc3F)ccnc2n1 [Compound 3] | 18 | 
COc1ccc2c(Oc3cc(F)c(CP(=O)(O)O)c(F)c3)ccnc2n1 [Compound 5] | 11 | 
